Test: Storage stability: creatinine (creatine decomposition product) content after storage
Format: physicochemical
Details: for Creatinine content / Observations: 40° C., 28 days
Description: A creatine-citric acid compound (3:1) (KC) as pure substance and mixtures of this compound (3:1) with 1, 5 and 10% by weight addition of a carbohydrate (CH) were stored for 28 days at 60° C. and then the contents of the creatine decomposition product creatinine were determined.

[1] = Addition: 1% by weight carbohydrate (CH)
[2] = Addition: 5% by weight carbohydrate (CH)
[3] = Addition: 10% by weight carbohydrate (CH)

## CN(CC(=O)O)C(=N)N.CN(CC(=O)O)C(=N)N.CN(CC(=O)O)C(=N)N.O=C(O)CC(O)(CC(=O)O)C(=O)O [KC without CH, creatine-citric acid compound (3:1)]
[1]
  Creatinine content: 770 ppm
  Observations: white
[2]
  Creatinine content: 770 ppm
  Observations: white
[3]
  Creatinine content: 770 ppm
  Observations: white
Reference substance before storage, limit of detection
  creatinine content, initial data: < 67 ppm

Reference: patent publication US20050037069A1, “Solid and stable creatine/citric acid composition(s) and compositions carbohydrate(s) or hydrates thereof, method for the production and use thereof” (priority 2002, published 2005)
